Results as given in US5834259A, “Process and composition for preparing D-aspartic acid” (Monsanto Company, priority 1996, dated 1998).

Key:
Type in all cases: biochemical, E. coli K12
[1] = molecular target: T1, L-aspartate-α-decarboxylase (Escherichia coli, UniProt P0A790); experiment: Re-treatment of Example 3 supernatant fluid with fresh cells (Example 4); settings: 37° C.
T1 construct: expressed in transfected cells; host or cells: E. coli W3110 transformed with pIF309 = strain NS3291 (ATCC 98675), whole cells
Excerpt: In all of the Examples herein, D- and L-aspartic acid isomers were quantified by HPLC using the following precolumn derivatization method. Aspartic acid was converted into diastereomers using ortho-phthalaldehyde and N-acetyl-L-cysteine. Separation of the diastereomers was achieved on a Supelcosil™ LC-18DB, 3μ, 150×4.6 mm column using a mobile phase of A: 20% methanol/80% triethylamine phosphate and B: methanol, and a step gradient as follows: […]
In this Example the supernatant fluid from Example 3 was re-treated with fresh cells. The reaction from Example 3, stopped at 68 hours, was centrifuged for 45 minutes in a GS-3 rotor at 7000 rpm. The supernatant fluid, 990 ml, was separated from the cells. 963 ml of this supernatant fluid was mixed with 137 ml fresh cells and placed in a 2 L fermentor. Bioconversion took place with mixing at 300 rpm, without automatic pH control and at a temperature of 37° C. Samples, approximately 1 ml, were removed over time and analyzed as in Example 3.

[2] = molecular target: T1, L-aspartate-α-decarboxylase; experiment: Re-use of cells on fresh 0.5M D/L-aspartate (Example 5); settings: re-used cells, 37° C.
Protocol: Cells that had already been used in Example 3 were put in fresh substrate to determine if they were still active.
Fresh D/L-aspartate substrate was prepared as previously described in Example 3. The cells from Example 3 were resuspended in deionized H2 O and made up to 100 ml. The pH of the substrate (900 ml, 0.5M D/L-Asp) was adjusted to 7.0 with NaOH. After placing in the 2 L fermentor, the cells (100 ml) were added. There was no pH control and deionized H2 O was used for substrate. Samples were removed over time, centrifuged and the supernatant fluid diluted appropriately for both D- and L-aspartic acid determination. Temperature was set at 37° C.

[3] = molecular target: T1, L-aspartate-α-decarboxylase; experiment: Activity towards D/L-glutamate and D/L-alanine, D/L-aspartate as control (Example 8); settings: racemate substrate, pH 7.0
Protocol: D/L-aspartate was run as a control.
Substrates were prepared by dissolving solid amino acid racemate in approximately 75 ml deionized H2 O and adjusting the pH to 7.0 with 10N NaOH. The volume was then brought to 100 ml with deionized H2 O. The cells used were stored frozen for about 1 month and then thawed and stored in a refrigerator for about 1 month prior to running the experiments.
The reaction was run the same as described in the prior Examples. Samples of supernatant fluid, approximately 0.20 ml, were removed over time, centrifuged and stored frozen before analysis by HPLC as described in the prior Examples.

[4] = molecular target: T1, L-aspartate-α-decarboxylase; experiment: Temperature study, 37° C. (Example 9); settings: for concentration in supernatant fluid / percent remaining: 1.0M, 100 g/l cells
Protocol: 133.1 g (1 mol) of D/L-aspartic acid was dissolved in deionized H2 O and the pH was adjusted to 7.0 with 10N NaOH, approximately 100 ml. Cells, freshly thawed from -80° C., were added to achieve a final concentration of 100 g/l. Three 2 L fermentors were each charged with 963 ml of substrate solution and 137 ml of cells and then heated to 37° C. and 45° C. while mixing at 300 rpm or heated to 50° C. while mixing at 450 rpm. Samples, approximately 1 ml, were removed over time and pH adjusted to 7.0 with either NaOH or HCl. After centrifugation to remove cells, the supernatant fluid was analyzed for both D- and L-aspartic acid.

Question: For `N[C@H](CC(=O)O)C(=O)O` [D-Asp, D-aspartic acid], which “concentration in supernatant fluid” value ([1]; 0.0000 hr) is on record?
Answer: The value was 21.450 mg/mL.

Question: And the “concentration in supernatant fluid” value ([1]; 2.7500 hr)?
Answer: The value was 21.350 mg/mL.

Question: And the percent remaining ([1]; 2.7500 hr)?
Answer: Its percent remaining is 99.534%.

Question: What about the “concentration in supernatant fluid” value ([1]; 13.500 hr) of the same compound?
Answer: The value was 21.190 mg/mL.

Question: And the percent remaining ([1]; 13.500 hr)?
Answer: Its percent remaining is 98.788%.

Question: And the “concentration in supernatant fluid” value ([1]; 15.000 hr)?
Answer: The value was 20.770 mg/mL.

Question: What about the percent remaining ([1]; 15.000 hr) of the same compound?
Answer: Its percent remaining is 96.830%.

Question: And the “concentration in supernatant fluid” value ([1]; 19.500 hr)?
Answer: The value was 21.480 mg/mL.

Question: What about the percent remaining ([1]; 19.500 hr) of the same compound?
Answer: Its percent remaining is 100.14%.

Question: And the “concentration in supernatant fluid” value ([1]; 23.500 hr)?
Answer: The value was 20.880 mg/mL.

Question: And the percent remaining ([1]; 23.500 hr)?
Answer: The percent remaining was 97.343%.

Question: And the “concentration in supernatant fluid” value ([1]; 39.000 hr)?
Answer: The value was 19.080 mg/mL.

Question: And the percent remaining ([1]; 39.000 hr)?
Answer: The percent remaining was 88.951%.

Question: And the “concentration in supernatant fluid” value ([1]; 47.000 hr)?
Answer: Its value is 17.280 mg/mL.

Question: What about the percent remaining ([1]; 47.000 hr) of the same compound?
Answer: Its percent remaining is 80.559%.

Question: And the “concentration in supernatant fluid” value ([1]; 51.750 hr)?
Answer: The value was 17.010 mg/mL.

Question: And the percent remaining ([1]; 51.750 hr)?
Answer: Its percent remaining is 79.301%.

Question: What about the “concentration in supernatant fluid” value ([1]; 68.500 hr) of the same compound?
Answer: The value was 14.900 mg/mL.

Question: What about the percent remaining ([1]; 68.500 hr) of the same compound?
Answer: The percent remaining was 69.464%.

Question: And the “concentration in supernatant fluid” value ([2]; 0.0000 hr)?
Answer: The value was 30.850 mg/mL.

Question: What about the “concentration in supernatant fluid” value ([2]; 6.2500 hr) of the same compound?
Answer: The value was 30.820 mg/mL.

Question: And the percent remaining ([2]; 6.2500 hr)?
Answer: Its percent remaining is 99.903%.

Question: What about the “concentration in supernatant fluid” value ([2]; 15.250 hr) of the same compound?
Answer: Its value is 29.870 mg/mL.

Question: What about the percent remaining ([2]; 15.250 hr) of the same compound?
Answer: Its percent remaining is 96.823%.

Question: What about the “concentration in supernatant fluid” value ([2]; 25.750 hr) of the same compound?
Answer: The value was 28.250 mg/mL.

Question: And the percent remaining ([2]; 25.750 hr)?
Answer: Its percent remaining is 91.572%.

Question: What about the “concentration in supernatant fluid” value ([2]; 28.000 hr) of the same compound?
Answer: Its value is 27.980 mg/mL.

Question: And the percent remaining ([2]; 28.000 hr)?
Answer: Its percent remaining is 90.697%.

Question: What about the “concentration in supernatant fluid” value ([2]; 44.250 hr) of the same compound?
Answer: The value was 25.000 mg/mL.

Question: And the percent remaining ([2]; 44.250 hr)?
Answer: The percent remaining was 81.037%.

Question: What about the “concentration in supernatant fluid” value ([2]; 63.500 hr) of the same compound?
Answer: Its value is 21.760 mg/mL.

Question: And the percent remaining ([2]; 63.500 hr)?
Answer: The percent remaining was 70.535%.

Question: And the “concentration in supernatant fluid” value ([2]; 65.000 hr)?
Answer: The value was 20.340 mg/mL.

Question: And the percent remaining ([2]; 65.000 hr)?
Answer: The percent remaining was 65.932%.

Question: And the “concentration in supernatant fluid” value ([3]; 0 hr)?
Answer: Its value is 29.890 mg/mL.

Question: What about the “concentration in supernatant fluid” value ([3]; 3.5 hr) of the same compound?
Answer: The value was 29.850 mg/mL.

Question: And the percent remaining ([3]; 3.5 hr)?
Answer: The percent remaining was 99.866%.

Question: What about the “concentration in supernatant fluid” value ([3]; 8.5 hr) of the same compound?
Answer: Its value is 29.900 mg/mL.

Question: And the percent remaining ([3]; 8.5 hr)?
Answer: The percent remaining was 100.03%.

Question: And the “concentration in supernatant fluid” value ([3]; 24 hr)?
Answer: Its value is 29.740 mg/mL.

Question: And the percent remaining ([3]; 24 hr)?
Answer: Its percent remaining is 99.498%.

Question: And the “concentration in supernatant fluid” value ([3]; 55 hr)?
Answer: The value was 30.120 mg/mL.

Question: And the percent remaining ([3]; 55 hr)?
Answer: The percent remaining was 100.77%.

Question: And the “stability of the isomer” value [4]?
Answer: The value was “stable”.

Question: What about the “concentration in supernatant fluid” value ([4]; 0.0000 hr) of the same compound?
Answer: Its value is 55.000 mg/mL.

Question: What about the “concentration in supernatant fluid” value ([4]; 2.5000 hr) of the same compound?
Answer: Its value is 54.310 mg/mL.

Question: What about the percent remaining ([4]; 2.5000 hr) of the same compound?
Answer: Its percent remaining is 98.745%.

Question: What about the “concentration in supernatant fluid” value ([4]; 4.0000 hr) of the same compound?
Answer: Its value is 54.440 mg/mL.

Question: And the percent remaining ([4]; 4.0000 hr)?
Answer: Its percent remaining is 98.982%.

Question: What about the “concentration in supernatant fluid” value ([4]; 6.0000 hr) of the same compound?
Answer: Its value is 54.470 mg/mL.

Question: And the percent remaining ([4]; 6.0000 hr)?
Answer: Its percent remaining is 99.036%.

Question: And the “concentration in supernatant fluid” value ([4]; 8.0000 hr)?
Answer: The value was 54.760 mg/mL.

Question: And the percent remaining ([4]; 8.0000 hr)?
Answer: Its percent remaining is 99.564%.

Question: And the “concentration in supernatant fluid” value ([4]; 10.000 hr)?
Answer: The value was 55.840 mg/mL.

Question: And the percent remaining ([4]; 10.000 hr)?
Answer: The percent remaining was 101.53%.

Question: And the “concentration in supernatant fluid” value ([4]; 12.000 hr)?
Answer: The value was 56.760 mg/mL.

Question: What about the percent remaining ([4]; 12.000 hr) of the same compound?
Answer: The percent remaining was 103.20%.

Question: And the “concentration in supernatant fluid” value ([4]; 20.000 hr)?
Answer: Its value is 55.460 mg/mL.

Question: And the percent remaining ([4]; 20.000 hr)?
Answer: The percent remaining was 100.84%.

Question: And the “concentration in supernatant fluid” value ([4]; 24.000 hr)?
Answer: Its value is 55.390 mg/mL.

Question: And the percent remaining ([4]; 24.000 hr)?
Answer: The percent remaining was 100.71%.

Question: What about the “concentration in supernatant fluid” value ([4]; 29.000 hr) of the same compound?
Answer: Its value is 53.990 mg/mL.

Question: And the percent remaining ([4]; 29.000 hr)?
Answer: Its percent remaining is 98.164%.

Question: What about the “concentration in supernatant fluid” value ([4]; 34.000 hr) of the same compound?
Answer: The value was 53.440 mg/mL.

Question: And the percent remaining ([4]; 34.000 hr)?
Answer: Its percent remaining is 97.164%.

Question: And the “concentration in supernatant fluid” value ([4]; 44.000 hr)?
Answer: Its value is 52.960 mg/mL.

Question: What about the percent remaining ([4]; 44.000 hr) of the same compound?
Answer: The percent remaining was 96.291%.

Question: And the “concentration in supernatant fluid” value ([4]; 48.000 hr)?
Answer: The value was 52.940 mg/mL.

Question: And the percent remaining ([4]; 48.000 hr)?
Answer: The percent remaining was 96.255%.

Question: And the “concentration in supernatant fluid” value ([4]; 68.000 hr)?
Answer: The value was 49.940 mg/mL.

Question: What about the percent remaining ([4]; 68.000 hr) of the same compound?
Answer: Its percent remaining is 90.800%.

Question: What about the “concentration in supernatant fluid” value ([4]; 92.000 hr) of the same compound?
Answer: Its value is 50.670 mg/mL.

Question: And the percent remaining ([4]; 92.000 hr)?
Answer: Its percent remaining is 92.127%.
